Read-outs that look alike come from different tables or passages of the source.
Key:
[1] = target: T1, α1-GABAA receptor (Homo sapiens, UniProt P14867+P18507); assay: Whole-cell patch-clamp electrophysiological test of positive allosteric modulation, α1-GABAAR-HEK293 cells; assay type: cell-based; details: read-out: Positive allosteric modulation activity on α1-GABAAR
T1 construct: expressed in transfected cells
Description: (§1) An α subunit, a β subunit, and a γ subunit are essential for the formation of a complete functional GABAA receptor. […] The α1-GABAAR-HEK293 cell model simultaneously expressed the α1 subunit (protein sequence available in GenBank with an accession No.: NM_000806.5), the β3 subunit (protein sequence available in GenBank with an accession No.: NM_000814.5), and the γ2 subunit (protein sequence available in GenBank with an accession No.: NM_000816.3). The α2-GABAAR-HEK293 cell model simultaneously expressed the α2 subunit (protein sequence available in GenBank with an accession No.: NM_000807.4), the β3 subunit (protein sequence available in GenBank with an accession No.: NM_000814.5), and the γ2 subunit (protein sequence available in GenBank with an accession No.: NM_000816.3).
(§2) The above cell lines were subcultured. The α2-GABAAR-HEK293 cells were expanded for assay of the benzodiazepine (BZD) site affinity of compounds for GABAA receptors.
(§3) The positive regulation activity of the test drugs on the α1-GABAA receptor and the α2-GABAA receptor was detected by the electrophysiological method. The specific method was as follows:
(§4) Compound concentration setting: the final concentration of the compounds used for screening was 100 nM. […] The components of the extracellular solution (ECS) for electrophysiology were as follows: 150 mM NaCl, 5 mM KCl, 2.5 mM CaCl2, 1 mM MgCl2, 10 mM HEPES, and 10 mM glucose (pH 7.4); the formulation of the intracellular solution (ICS) of electrodes for electrophysiology was as follows: 140 mM CsCl, 11 mM EGTA, 10 mM HEPES, 2 mM CaCl2, 1 mM MgCl2, 4 mM MgATP, and 2 mM TEA (pH 7.3). GABA (γ-aminobutyric acid) powder was prepared into a mother liquor with pure water, which was then diluted in ECS; the compounds were first prepared into 4 mM mother liquors with dimethyl sulfoxide and then gradually diluted to corresponding concentrations in GABA-ECS. The solutions were all prepared freshly prior to the electrophysiological test.
(§5) Electrophysiological signal acquisition was performed using an EPC 10 amplifier and PatchMaster software (HEKA) or an Axon700B amplifier and Clampex software (AXON).
(§6) The recording electrode was made by pulling borosilicate glass, with an electrode resistance of 4-6 MΩ. Extracellular administration was performed using the ALA-VC-8PG™ system. A single, independently growing cell was selected. After the glass electrode formed a good seal with the cell, the membrane was ruptured to form the whole-cell configuration. The cell membrane potential was clamped at −60 mV and recorded in Gap-free mode. During the test, the extracellular solution was first applied extracellularly for about 20 s. After the baseline (Iprebaseline) stabilized, the extracellular solution was switched to GABA-ECS. At this time, the current caused by GABA (Igaba) could be detected. After about 10-20 s, when the current stabilized, the extracellular solution was switched to a mixed solution of the compound and GABA-ECS. At this point, the current caused by both the compound and GABA (Itreatment) could be detected. Finally, the solution was switched to the extracellular solution, and the test was terminated after recording for 20-40 s.
(§7) The current values at each stage were calculated based on the average value of the current after stabilization under the corresponding conditions. We defined the control current as Igaba−Iprebaseline, and the current after compound treatment as Itreatment−Iprebaseline. The allosteric modulation activity of the compounds was expressed as a percentage, calculated by the following formula: functional activity=[(Itreatment−Igaba)/(Igaba−Iprebaseline)]×100%.

[2] = target: T2, α2-GABAA receptor (Homo sapiens, UniProt P18507+P47869); assay: Whole-cell patch-clamp electrophysiological test of positive allosteric modulation, α2-GABAAR-HEK293 cells; assay type: cell-based; details: read-out: Positive allosteric modulation activity on α2-GABAAR
T2 construct: expressed in transfected cells
Description: as §1, §2, §3, §4, §5, §6, §7

[3] = target: T2, α2-GABAA receptor; assay: Radioligand (3H-flunitrazepam) competitive binding assay at the BZD site
Description: as §1, §2
The affinity of the compounds for the α2-GABAA receptor was determined by competing with ^3H-flunitrazepam (isotope ^3H-labelled flunitrazepam) for binding to the BZD site on the membrane proteins of HEK293 cells stably expressing the human α2-GABAA receptor.
Membrane preparation: The cells were suspended in 50 mM Tris-HCl buffer (pH=7.4), homogenized 10 times (20 s for each time) with a homogenizer on ice, and then centrifuged at 4° C. at 1000 g for 10 min. The supernatant was taken. The above steps were repeated. The supernatant was centrifuged (33800 g; Thermo, rotor: A27-8×50) at 4° C. for 60 min. The pellet was resuspended in Tris buffer (50 mM Tris-HCl, 10 mM MgCl2, 0.5 mM EDTA, and 10% glycerol). The protein content was determined (BCA (bicinchoninic acid) protein quantification assay based on the copper ion reduction method, with a BCA kit purchased from Pierce (Annoron (Beijing) Biotechnology Co., Ltd.)), and 1 mL aliquots were prepared and stored at −80° C.
Radioligand competitive binding assay: This assay was performed in a 200 μL system (96-well plate) containing 100 μL of cell membranes. The concentration of ^3H-flunitrazepam was 1 nM, and the concentrations of the test compounds were in the range of […]. Flumazenil was used as a control. To each low control (LC) well was added 1 μL of 2 mM flumazenil (the final concentration of 10 μM), and to each high control (HC) well was added 1 μL of dimethyl sulfoxide. The final concentration of the target membrane protein was […]. All sample stock solutions of test compounds were 10 mM solutions in dimethyl sulfoxide. All the samples were diluted to a concentration of 0.2 mM with dimethyl sulfoxide, and then subjected to a 4-fold serial dilution to give a total of 8 working concentration gradients. The 96-well plate was sealed with a plate sealing membrane and then incubated on a shaker at room temperature for 1 h. Meanwhile, a GF/C filter plate was soaked in a plate soaking buffer (0.3% PEI (polyethyleneimine, purchased from: Sigma-Aldrich, model: P314), stored at 4° C.) for at least 0.5 h. After the binding incubation was completed, the cells were harvested onto the GF/C filter plate using a cell harvester and washed 4 times with a washing buffer (50 mM Tris-HCl, pH 7.4, stored at 4° C.). After drying in an oven at 50° C. for 1 h, the dried GF/C filter plate was bottom-sealed. The residual radioactivity on the filter membrane was detected by liquid scintillation counting. Scintillation fluid was added at 50 µL/well, and then the plate was sealed. Readings were taken using Microbeta^2 (microplate counter, purchased from: PerkinElmer, model: CNLL0153). The inhibitory activity of the test samples on the binding of ^3H-flunitrazepam to the GABAA receptor membrane protein was calculated.

[4] = compound 100 nM, GABA about EC2-4, normalised to positive compound CVL-865 (=100%), negative value = reverse allosteric modulation
[5] = compound 100 nM, GABA 0.10-0.11 M [sic] (about EC70.8), normalised to positive compound CVL-865 (=100%)
[6] = membranes of HEK293 cells stably expressing human α2-GABAA receptor (α2β3γ2), 1 nM 3H-flunitrazepam, Ki calculated from IC50, read-out: α2 Ki

Compound	activation at 0.1 µM [1, 4] [%]	activation at 0.1 µM [2, 5] [%]	Ki [3, 6] [nM]	activation at 0.1 µM [1] [%]	activation at 0.1 µM [2] [%]	Ki [3] [nM]
CCn1cnc2c(-c3ccc(F)c(-c4ccn5c(C6CC(OC)C6)nnc5c4OC)c3)cnnc21 (centres unmarked) [Example 6, 7-Ethyl-4-(4-fluoro-3-(8-methoxy-3-(3-methoxycyclobutyl)-[1,2,4]triazolo[4,3-a]pyridin-7-yl)phenyl)-7H-imidazo[4,5-c]pyridazine]	-16	118				
CCn1cnc2c(-c3ccc(F)c(-c4cn5cc(C)nc5cc4OC)c3)cnnc21 [Example 50, 7-Ethyl-4-(4-fluoro-3-(7-methoxy-2-methylimidazo[1,2-a]pyridin-6-yl)phenyl)-7H-imidazo[4,5-c]pyridazine]				29	103	9.89
CCn1cnc2c(-c3ccc(F)c(-c4ccn5c(C6CCOCC6)nnc5c4OC)c3)cnnc21 [Example 34, 7-Ethyl-4-(4-fluoro-3-(8-methoxy-3-(tetrahydro-2H-pyran-4-yl)-[1,2,4]triazolo[4,3-a]pyridin-7-yl)phenyl)-7H-imidazo[4,5-c]pyridazine]	25	95	8.13			
CCn1cnc2c(-c3ccc(F)c(-c4cn5cc(C(F)F)nc5cc4OC)c3)cnnc21 [Example 41, 4-(3-(2-(Difluoromethyl)-7-methoxyimidazo[1,2-a]pyridin-6-yl)-4-fluorophenyl)-7-ethyl-7H-imidazo[4,5-c]pyridazine]	59	178	0.11			
CCn1cnc2c(-c3ccc(F)c(-c4ccn5c(C(C)C)nnc5c4OC)c3)cnnc21 [Example 29, 7-Ethyl-4-(4-fluoro-3-(8-methoxy-3-isopropyl-[1,2,4]triazolo[4,3-a]pyridin-7-yl)phenyl)-7H-imidazo[4,5-c]pyridazine]	-51	156	6.6			
CCn1cnc2c(-c3ccc(F)c(-c4ccn5c(C6CCOC(C)(C)C6)nnc5c4OC)c3)cnnc21 (centres unmarked) [Example 16, 4-(3-(3-(2,2-Dimethyltetrahydro-2H-pyran-4-yl)-8-methoxy-[1,2,4]triazolo[4,3-a]pyridin-7-yl)-4-fluorophenyl)-7-ethyl-7H-imidazo[4,5-c]pyridazine]	-56	95	8.17			
CCn1cnc2c(-c3ccc(F)c(-c4ccn5c(C6CC6)nnc5c4COC)c3)cnnc21 [Example 1, 4-(3-(3-Cyclopropyl-8-(methoxymethyl)-[1,2,4]triazolo[4,3-a]pyridin-7-yl)-4-fluorophenyl)-7-ethyl-7H-imidazo[4,5-c]pyridazine]	70	129	10.5			
CCn1cnc2c(-c3ccc(F)c(-c4ccn5c(C6CCC6)nnc5c4OC)c3)cnnc21 [Example 17, 4-(3-(3-Cyclobutyl-8-methoxy-[1,2,4]triazolo[4,3-a]pyridin-7-yl)-4-fluorophenyl)-7-ethyl-7H-imidazo[4,5-c]pyridazine]	-49	100	2.85			
CCn1cnc2c(-c3ccc(F)c(-c4ccn5c(C)nnc5c4OC)c3)cnnc21 [Example 32, 7-Ethyl-4-(4-fluoro-3-(8-methoxy-3-methyl-[1,2,4]triazolo[4,3-a]pyridin-7-yl)phenyl)-7H-imidazo[4,5-c]pyridazine]	-39	102	2.89			
CCn1cnc2c(-c3ccc(F)c(-c4ccn5c(C6COC6)nnc5c4OC)c3)cnnc21 [Example 28, 7-Ethyl-4-(4-fluoro-3-(8-methoxy-3-(oxetan-3-yl)-[1,2,4]triazolo[4,3-a]pyridin-7-yl)phenyl)-7H-imidazo[4,5-c]pyridazine]	19	126	5.12			

Further lines, with some results ahead:

activation at 0.1 µM [1, 4] [%]	activation at 0.1 µM [2, 5] [%]	Ki [3, 6] [nM]	Compound	activation at 0.1 µM [1] [%]	activation at 0.1 µM [2] [%]	Ki [3] [nM]
47	100	2.96	CCn1cnc2c(-c3ccc(F)c(-c4ccn5c(C)cnc5c4COC)c3)cnnc21 [Example 54, 7-Ethyl-4-(4-fluoro-3-(8-(methoxymethyl)-3-methylimidazo[1,2-a]pyridin-7-yl)phenyl)-7H-imidazo[4,5-c]pyridazine]			
40	123	11.4	CCn1cnc2c(-c3ccc(F)c(-c4ccn5c(C)nnc5c4COC)c3)cnnc21 [Example 58, 7-Ethyl-4-(4-fluoro-3-(8-(methoxymethyl)-3-methyl-[1,2,4]triazolo[4,3-a]pyridin-7-yl)phenyl)-7H-imidazo[4,5-c]pyridazine]			
19	99	8.07	CCn1cnc2c(-c3ccc(F)c(-c4cn5ccnc5cc4OC)c3)cnnc21 [Example 52, 7-Ethyl-4-(4-fluoro-3-(7-methoxyimidazo[1,2-a]pyridin-6-yl)phenyl)-7H-imidazo[4,5-c]pyridazine]			
44	82	16.5	CCn1cnc2c(-c3ccc(F)c(-c4c(OC)ccc5nccn45)c3)cnnc21 [Example 49, 7-Ethyl-4-(4-fluoro-3-(6-methoxyimidazo[1,2-a]pyridin-5-yl)phenyl)-7H-imidazo[4,5-c]pyridazine]			
